The results in this text go back to patent US8476288B2, “Salts 756” (AstraZeneca AB, priority 2009, dated 2013).

Molecules are shown by their SMILES. Counter-ions that a name gives are not always drawn.

Holding throughout (type): physicochemical
Series [1] can be described thus: Salt storage stability at 40° C. and 75% relative humidity (HPLC for acid degradation product of Formula (A)). Conditions: stored under high temperature and humidity, for example 40° C. and 75% relative humidity. As for the experimental part: The stability of the stability of the mono-saccharin (2 different batches), mono-trans-cinnamic acid, mono-succinic acid, mono-benzoic acid, difumaric acid, dixinafoic acid (di-1-hydroxy-2-naphthoic acid) and disaccharin salts of Compound (I) when stored at 40° C. and 75% relative humidity was measured as follows.
Approximately 30 mg of each salt was weighted into 4 mL screw cap vials, the vials closed and stored at 40° C./75% relative humidity with constant control of the environmental conditions. For every time point the samples were removed from the storage facility and analysed by HPLC for the presence of the acid degradation product of the Formula (A): […]
The HPLC analysis was performed using the following method:
A sample solution was prepared at approximately 0.1 to 0.2 mg/mL in the sample diluent, 0.03% trifluoroacetic acid in 50/50 v/v acetonitrile/water, using sonication as required. The following chromatographic conditions were applied: […]

Series [2] in a line: Dynamic vapour sorption (DVS) hygroscopicity. Conditions: at 80% relative humidity, weight change from 0% RH to 80% RH in second DVS cycle. As to the method: DVS analysis was performed using an SMS Dynamic Vapour Sorption DVS-Advantage instrument. The solid sample (approximately 1-5 mg) was placed into a platinum sample holder and the weight of the sample was recorded during a dual cycle step method (40 to 90 to 0 to 90 to 0% relative humidity (RH), in steps of 10% RH).
The responses of the mono-fumaric acid salt and the difumaric acid salt (Examples 15 and 19) to changes in humidity were investigated using DVS. The hygroscopicity was calculated as the relative change in weight of the sample between 0% RH at the start of the second cycle and 80% RH during the increase of humidity in the second cycle.
The hygroscopicity of a sample is dependent on factors in addition to the inherent properties of the pure solid form itself, for example the purity and the crystallinity of the sample will have some impact on the result.

A short description of series [3]: Salt/lactose monohydrate blend storage stability at 40° C. and 75% relative humidity. Conditions: mixtures of salt with lactose monohydrate; 40° C./75% relative humidity. As for the experimental part: The storage stability of blends of lactose monohydrate with the mono-saccharin, mono-benzoic acid, difumaric acid and disaccharin salts of Compound (I) when stored at is 40° C. and 75% relative humidity was measured as follows.
Approximately 5 grams of each salt were micronised using a 1″ jet mill (MC One, Jetpharma, Balerna, Switzerland) with Nitrogen as the flow gas.
10 g of bulk lactose blend of each salt was prepared by the following method:
Micronised lactose monohydrate (9800 mg) was added to a 60 ml clear glass bottle. To this was added the micronised salt of compound (I) (200 mg) and a rubber stopper and aluminium screw cap used to close the bottle.
The bottle containing the salt and lactose monohydrate was placed in a trembling blender (Turbula T2C, W. Bachofen, Basel, Switzerland) blending vessel and the mixture blended for 10 minutes on speed 1 (30 rpm). A sample (2 g) of the lactose/salt blend was removed. The remaining of lactose/salt blend (8 g) was placed in a stability suite (controlled environmental conditions) at 40° C./75% relative humidity. The sample was temporarily removed from the storage facility for analysis. For each analysis 50 mg of the lactose/salt blend were dissolved in the sample diluents and analysed by HPLC for the compound of Formula (A) as described above in Example 23.

Turning to `CCCCCNc1nc(N)nc(C)c1Cc1ccc(CC(=O)OCCCCN(C)C)cc1.O=C(O)c1ccccc1` [Example 1, 4-(Dimethylamino)butyl 2-(4-((2-amino-4-methyl-6-(pentylamino)pyrimidin-5-yl)methyl)phenyl)acetate benzoic acid salt], in series [1], the “solid state chemical stability on storage” value is “good solid state chemical stability”.

As to `CCCCCNc1nc(N)nc(C)c1Cc1ccc(CC(=O)OCCCCN(C)C)cc1.O=C(O)/C=C/C(=O)O` [Example 19, 4-(Dimethylamino)butyl 2-(4-((2-amino-4-methyl-6-(pentylamino)pyrimidin-5-yl)methyl)phenyl)acetate difumaric acid salt], in series [2] (listed as difumaric acid salt of Compound (I)), the “moisture uptake (hygroscopicity)” value is on record as 0.2-2 % w/w. Besides, in series [1], the “solid state chemical stability on storage” value is on record as “good solid state chemical stability”. Moreover, the “stability in the presence of lactose monohydrate” value in series [3] is listed as “particularly stable in the presence of lactose monohydrate”.

Regarding `CCCCCNc1nc(N)nc(C)c1Cc1ccc(CC(=O)OCCCCN(C)C)cc1` [disaccharin salt of Compound (I)], the “solid state chemical stability on storage” value in series [1] was “good solid state chemical stability”. Besides, the “stability in the presence of lactose monohydrate” value in series [3] was “particularly stable in the presence of lactose monohydrate”.

Turning to `CCCCCNc1nc(N)nc(C)c1Cc1ccc(CC(=O)OCCCCN(C)C)cc1.O=C(O)/C=C/C(=O)O` [Example 15, 4-(Dimethylamino)butyl 2-(4-((2-amino-4-methyl-6-(pentylamino)pyrimidin-5-yl)methyl)phenyl)acetate fumaric acid salt], the “moisture uptake (hygroscopicity)” value in series [2] is “more than 2 % w/w”.
